# pKd, pKi: −log10 of the molar value.
# Experiments:
# BET BD1 = biological target: BET BD1; set-up: method as in Zhao et al., 2018; conditions: ref Zhao et al., 2018, cited from earlier work
# [1] = system: non-BET bromodomain-containing proteins; set-up: method as in Zhao et al., 2018; conditions: ref Zhao et al., 2018; cited from earlier work
# [2] = Dynamic PET/CT imaging in mice, baseline uptake and biodistribution; assay type: in vivo, male Balb/c mice
# Description: Following the successful radiosynthesis, we stepped forward to evaluate [^11C]1 as a potential BET PET radiotracer by PET imaging experiments in rodents. Dynamic PET imaging in male Balb/c mice was conducted following the injection of [^11C]1 via the tail vein at the dose of 3.7–7.4 Mbq for each scan. Each dynamic PET imaging scan lasted for 60 min and followed by a 10-min of computed tomography (CT) scan. The PET/CT imaging analysis was then performed by dynamic data collection and image reconstruction. The biodistribution of [^11C]1 in the whole-body of mice is initially studied. As depicted in Figure 2, four time-points (5, 10, 30, and 60 min) after [^11C]1 injection were selected to evaluate the uptake, biodistribution, and clearance of the radioligand in the organs of interests. […] In the heart, spleen, and lung, the uptakes of radioligand reached a peak sharply and followed by gradual wash-out post-injection.
# (§1) The general procedure for rodent PET/CT studies was described previously ([Bai et al., 2019], [2020a]). Briefly, the PET/CT scan was carried out by a Triumph Trimodality/SPECT scanner (Gamma Medica, Northridge, CA, United States). Mice were arranged under anesthetized 2% isoflurane (Patterson Vet Supply, Inc., Greeley, CO, United States) in a carrier of 2 L/min medical oxygen during the imaging scanning. [^11C]1 (3.7–7.4 Mbq per animal, n = 2) was injected in mice via a lateral tail vein catheterization before PET acquisition. For the blocking study, the radioligand was administrated after CF53, or JQ1 was injected via a lateral tail vein catheterization 5-min before the start of PET acquisition. Dynamic PET acquisition lasted for 60 min followed by 10-min CT for anatomic co-registration. PET data were reconstructed using a 3D-MLEM method resulting in full width at a half-maximum resolution of 1 mm. These files were imported and analyzed using AMIDE ([Loening and Gambhir, 2003]) (a medical imaging data examiner) software (an open-source software, Los Angeles, CA, United States) and PMOD (PMOD 4.01, PMOD Technologies Ltd., Zurich, Switzerland).
# (§2) Dynamic PET data were collected and the corresponding images were reconstructed by 3D-MLEM method resulting in full width at a half-maximum resolution of 1 mm. Volumes of interest (VOIs) were generated manually in forms of spheres under the guide of high-resolution CT structural images. TACs were exported as decay-corrected activity per unit volume. The TACs were expressed as percent injected dose per unit volume (%ID/cc) for analysis.
# BET proteins = assay: PET/CT blocking studies in mice (specific binding); assay type: in vivo; conditions: for radioactivity reduction in the whole-brain: based on TACs; for decrease of radioligand concentration in organs of interest: average over organs
# Description: To evaluate the specific binding of [^11C]1, the blocking studies were carried out. Mice were pre-treated with unlabeled 1 (1.0 mg/kg) and JQ1 (1.0 mg/kg) at 5-min prior to the administration of [^11C]1. The PET/CT imaging and time-activity curves (TAC) of baseline and blocking studies are shown separately in Figure 3.
# as §1, §2
"distribution in blood-rich organs ([2]; heart, liver and kidney, i.v. tail vein, 5-60 min post-injection)","time of max brain uptake ([2]; post-injection, whole brain)",brain-blood barrier (BBB) penetration ([2]; whole brain PET),"max brain uptake ([2]; whole-brain analysis, i.v.)",Compound,pKi (BET BD1; binding affinity to BET BD1),"pKd (BET BD1; to BET BD1, printed in Figure 1)",selectivity over non-BET bromodomain-containing proteins [1],radioactivity reduction in the whole-brain (BET proteins; JQ1-blocking (1.0 mg/kg JQ1)),decrease of radioligand concentration in organs of interest (BET proteins; JQ1-blocking: pre-treated with JQ1 (1.0 mg/kg) 5 min prior),radioactivity reduction in the whole-brain (BET proteins; self-blocking (1.0 mg/kg CF53)),decrease of radioligand concentration in organs of interest (BET proteins; self-blocking: pre-treated with unlabeled 1 (1.0 mg/kg) 5 min prior)
,,,,COc1cc2c(cc1-c1c(C)noc1C)[nH]c1nc(C)nc(Nc3cc(C4CC4)nn3C)c12 [Compound 1],> 9.00,8.66 to 9.31,high selectivity,,,,
highly distributed,~2 min,limited,0.9 % ID/cc,Cc1nc(Nc2cc(C3CC3)nn2C)c2c(n1)[nH]c1cc(-c3c(C)noc3C)c(O[11CH3])cc12 [[^11C]1],,,,~50%,over 40%,~50%,over 40%

# Reference: PMC7434981, “Development of a Novel Positron Emission Tomography (PET) Radiotracer Targeting Bromodomain and Extra-Terminal Domain (BET) Family Proteins” (Frontiers in Molecular Biosciences, 2020)
